Experimental findings from publication PMC9032385, “A2A Adenosine Receptor Antagonists: Are Triazolotriazine and Purine Scaffolds Interchangeable?” (Molecules, 2022) are described below.

For one series, the target named is T1, human recombinant A3AR (Homo sapiens, UniProt P0DMS8).
T1 construct: expressed in transfected cells; membrane preparation
T1 sequence (P0DMS8 1-318): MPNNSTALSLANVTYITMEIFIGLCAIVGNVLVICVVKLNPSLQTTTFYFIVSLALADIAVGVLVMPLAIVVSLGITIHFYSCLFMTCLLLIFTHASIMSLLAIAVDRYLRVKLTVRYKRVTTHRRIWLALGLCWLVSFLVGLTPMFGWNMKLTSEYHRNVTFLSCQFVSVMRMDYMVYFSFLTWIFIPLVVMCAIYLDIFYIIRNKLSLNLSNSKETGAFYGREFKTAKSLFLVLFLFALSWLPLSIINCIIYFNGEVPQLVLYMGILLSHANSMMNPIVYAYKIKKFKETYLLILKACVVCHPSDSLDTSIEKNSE
As to the kind of experiment: Radioligand binding at human A3AR ([3H]HEMADO displacement, CHO cell membranes). As to conditions: displacement of [3H]HEMADO, n = 3–5, means ± standard errors. The method, then: The affinities of the newly synthesized compounds 7–13 and 17–21 were determined in binding studies at human recombinant A1, A2A, and A3 ARs, stably transfected in Chinese hamster ovary (CHO) cells, using [^3H]CCPA (2-chloro-N^6-cyclopentylAdo), [^3H]NECA (5′-N-ethylcarboxamidoAdo), and [^3H]HEMADO (2-hexynyl-N^6-methylAdo) as respective radioligands. Most of the compounds were also evaluated at A2BARs in a functional study using the GloSensor cAMP assay. The results are reported in Table 1 as Ki values in nM (± standard errors). In the case of A2BARs, Ki-values were calculated from IC50-values determined by the inhibition of NECA-stimulated adenylyl cyclase activity.
Cell culture: The Chinese hamster ovary cells (CHO) stably transfected with the desired ARs were grown in DMEM/F12 medium containing 10% FBS (fetal bovine serum), 100 U/mL penicillin, 100 µg/mL streptomycin, 2.5 μg/mL amphotericin B, 1 mM sodium pyruvate, 0.1 mg/mL genetecina (G418), and incubated at 37 °C in a gaseous mixture of 5% CO2: […].
Preparation of membranes: Cell membranes for binding assays were prepared mechanically detaching the cells from the petri and suspending them in a cold hypotonic buffer (5 mM Tris/HCl, 2 mM EDTA, pH 7.4). The cell suspension was homogenized (Ultra-Turrax, 2 × 15 s at maximum speed) and the homogenate centrifuged for 10 min (4 °C) to 1000× g. The supernatant was subsequently centrifuged for 30 min (4 °C) at 100,000× g and the pellet containing the membrane proteins was re-suspended in a specific buffer for each receptor subtype (A1: 50 mM Tris/HCl, pH 7.4; A2A: 50 mM Tris/HCl, 10 mM MgCl2, pH 7.4; A3: 50 mM Tris/HCl, 10 mM MgCl2, 1 mM EDTA, pH 8.25). The amount of the protein suspension was determined according to the […] using the BCA Protein Assay Kit (Pierce), frozen in liquid nitrogen, and stored at −80 °C.
Binding assays: The dissociation constants of the radioligand (KD) were calculated through saturation assays, while the dissociation constants of the compounds under study (Ki) were determined by competition experiments. All binding data were calculated by nonlinear regression curves using the software GraphPad Prism 5 (GraphPad Software, San Diego, CA, USA). The increasing concentrations of the radioligand saturation binding ([^3H]-CCPA for the A1 receptor subtype, [^3H]-NECA for the A2A receptor subtype, and [^3H]-HEMADO for the A3 receptor) subtype were incubated in a total volume of 250 μL containing 0.2 U/mL of Ado deaminase (ADA) and 12 micrograms of membrane proteins in the specific buffer. In competition experiments for the A1 receptor subtype, each compound was added at increasing concentrations, to the well containing 1 nM of [^3H]-CCPA, to a final volume of 200 μL. The samples were left to incubate for 3 h at room temperature, filtered in a filter 96-well plate (UniFilter GF/C, Perkin-Elmer Life and Analytical Science, Boston, MA) using the FilterMate Cell Harvester (Perkin-Elmer), and washed 3 times with cold distilled water. After drying the filter plate at 40 °C for 30′, they 20 μL of scintillating liquid (Microscint-20, Perkin-Elmer) was added to each well, and then the radioactivity was quantized with the MicroBeta2 Plate Counter (Perkin-Elmer). The conditions for binding experiments at A2A and A3 receptor subtypes were essentially the same as for the A1AR using [^3H]-NECA (N-ethylcarboxyamideAdo) at a concentration of 10 nM and [^3H]-HEMADO (2-(1-hexyne)-N^6-methylAdo) at a concentration of 1 nM as radioligands, respectively. The samples were incubated with 12 micrograms of protein for 3 h at room temperature and filtered as described above.
The non-specific binding was determined in the presence of 1 mM theophylline for the A1AR, or 100 µM R-PIA (N^6-(1-methyl-2-phenylethyl)Ado) for the A2A and A3 receptors.
A general note: In a radioligand displacement assay an active substance lowers the binding of a labelled ligand.

Series [1] deals with BV-2 murine microglial cells. The experiment in a line: MTT viability assay in BV-2 cells. It counts as cell-based. As to conditions: 24 h, 50–5000 nM, up to 5 μM. The method, then: First of all, we verified the potential cytotoxicity of 13 in our cell model system. BV-2 cells were treated with increasing concentrations of the compound for 24 h and cell viability was evaluated by MTT assay (Figure 4A).
Cell Cultures and Treatments: BV-2 murine microglial cells (a gift from Prof. Elisabetta Blasi of the University of Modena and Reggio Emilia, Modena, Italy) were maintained at 37 °C and 5% CO2 in a humidified incubator and grown in DMEM supplemented with 10% (v/v) low-endotoxin fetal bovine serum (Euroclone—Milan, Italy), 2 mM L-glutamine, 50 U/mL penicillin, and 50 μg/mL streptomycin (Sigma-Aldrich–Merck, Milan, Italy). Cells were seeded at 50,000 cells/mL in 96-well tissue culture plates for the viability assay, in 6-well tissue culture plates for the Griess assay and RT-PCR assay. BV-2 cells were treated for 24 h with ANR 94 or 13 at different concentrations and then exposed to LPS (100 ng/mL; Sigma-Aldrich–Merck) for a further 24 h.
MTT Viability Assay: MTT assay was performed to quantify the viability of BV-2 cells as previously reported. […] The absorbance was measured at 595 nm using a microplate spectrophotometer (VICTOR3 V Multilabel Counter; PerkinElmer, Wellesley, MA, USA). Data are expressed as a percentage of the control cells, which is considered 100% cell viability.

By Ki is commonly meant a dissociation constant, usually derived from enzyme kinetics or from competition with a known ligand. For the compound `CCn1c(-c2ccco2)nc2c(N)nc(NCCc3ccc(O)cc3)nc21` [compound 13, 4-(2-((6-Amino-9-ethyl-8-(furan-2-yl)-9H-purin-2-yl)amino)ethyl)phenol], on human recombinant A3AR, the Ki is 0.012 µM. The “cytotoxicity (cell viability, MTT)” value in series [1] is “did not show any cytotoxicity”.
